Experimental data: US20080233127A1, “IMIDAZOLOPYRIMIDINE ANALOGS AND THEIR USE AS PI3 KINASE AND MTOR INHIBITORS” (Wyeth, priority 2007, published 2008)

How the values were obtained:
PI3 Kinase = assay: PI3K fluorescence polarization assay; format: biochemical; conditions: 25 μM ATP, diC8-PI(4,5)P2 substrate, 1 hour at 25° C.; read-out: PI3 Kinase Median IC50
human TOR = molecular target: T1, human TOR (Homo sapiens, UniProt P42345); assay: mTOR enzyme assay (DELFIA format, purified FLAG-TOR, His6-S6K substrate); format: biochemical; conditions: 100 μM ATP, 1.25 μM His6-S6K, 2 hours at room temperature; read-out: TOR Kinase Median IC50
T1 construct: FLAG

Row | SMILES | IC50 (PI3 Kinase) [nM] | IC50 (human TOR) [nM]
1 | c1ccc2c(-c3nc(N4CCOCC4)c4nc[nH]c4n3)csc2c1 [Compound 9, 2-(1-benzothien-3-yl)-6-morpholin-4-yl-9H-purine] | 2000 | –
2 | O=[N+]([O-])c1cccc(-c2nc(N3CCOCC3)c3nc[nH]c3n2)c1 [Compound 8, 6-morpholin-4-yl-2-(3-nitrophenyl)-9H-purine] | 8900 | –
3 | c1cc2cc(-c3nc(N4CCOCC4)c4nc[nH]c4n3)ccc2[nH]1 [Compound 6, 2-(1H-indol-5-yl)-6-morpholin-4-yl-9H-purine] | 2750 | 180
4 | Oc1cccc(-c2nc(N3CCCCC3)c3nc[nH]c3n2)c1 [Compound 21, 3-(6-Piperidin-1-yl-9H-purin-2-yl)-phenol] | 4300 | –
5 | Clc1cc(-c2nc(N3CCOCC3)c3nc[nH]c3n2)ccc1OCc1ccccc1 [Compound 24, 2-(4-Benzyloxy-3-chloro-phenyl)-6-morpholin-4-yl-9H-purine] | 4530 | > 20000
6 | c1ccc(-c2cccc(-c3nc(N4CCOCC4)c4nc[nH]c4n3)c2)cc1 [Compound 14, 2-biphenyl-3-yl-6-morpholin-4-yl-9H-purine] | 4440 | –
7 | CC(C)c1cccc(-c2nc(N3CCOCC3)c3nc[nH]c3n2)c1 [Compound 12, 2-(3-isopropylphenyl)-6-morpholin-4-yl-9H-purine] | 9920 | –
8 | COc1cc(COc2cccc(-c3nc(N4CCOCC4)c4nc[nH]c4n3)c2)cc(OC)c1 [Compound 23, 2-[3-(3,5-Dimethoxy-benzyloxy)-phenyl]-6-morpholin-4-yl-9H-purine] | 6200 | 16500
9 | CC(C)(C)OC(=O)N1CCC(n2cnc3c(N4CCOCC4)nc(-c4cccc(O)c4)nc32)CC1 [Compound 57, tert-butyl 4-{2-(3-hydroxyphenyl)-6-morpholino-9H-purin-9-yl}piperidine-1-carboxylate] | 288 | 270
10 | Oc1cccc(-c2nc(N3CCOCC3)c3ncn(C4CCN(Cc5ccc(N6CCOCC6)nc5)CC4)c3n2)c1 [Compound 82, 3-(6-morpholin-4-yl-9-{1-[(6-morpholin-4-ylpyridin-3-yl)methyl]piperidin-4-yl}-9H-purin-2-yl)phenol] | 55 | 145
11 | CCNC(=O)Nc1ccc(-c2nc(N3CCOCC3)c3ncn(C4CCN(Cc5cccnc5)CC4)c3n2)cc1 [Compound 90, 1-ethyl-3-(4-(6-morpholino-9-(1-(pyridin-3-ylmethyl)piperidin-4-yl)-9H-purin-2-yl)phenyl)urea] | 1350 | 12
12 | Oc1cccc(-c2nc(N3CCOCC3)c3ncn(CC4CCN(Cc5ccccc5)CC4)c3n2)c1 [Compound 27, 3-(9-((1-benzylpiperidin-4-yl)methyl)-6-morpholino-9H-purin-2-yl)phenol] | 193 | 600
13 | Oc1cncc(-c2nc(N3CCOCC3)c3ncn(C4CCNCC4)c3n2)c1 [Compound 36, 5-(6-morpholin-4-yl-9-piperidin-4-yl-9H-purin-2-yl)pyridin-3-ol] | 14 | 970
14 | c1nc2c(N3CCOCC3)nc(-c3ccsc3)nc2[nH]1 [Compound 2, 6-morpholin-4-yl-2-(3-thienyl)-9H-purine] | 3290 | 3900
15 | C=CC(=O)n1cnc2c(N3CCOCC3)nc(-c3cccc(O)c3)nc21 [Compound 91, 1-(2-(3-hydroxyphenyl)-6-morpholino-9H-purin-9-yl)prop-2-en-1-one] | 43 | 73
16 | COc1cncc(-c2nc(N3CCOCC3)c3nc[nH]c3n2)c1 [Compound 42, 2-(5-methoxypyridin-3-yl)-6-morpholin-4-yl-9H-purine] | 598 | 3000
17 | COc1cccc(-c2nc(N3CCOCC3)c3nc[nH]c3n2)c1 [Compound 53, 4-(2-(3-methoxyphenyl)-9H-purin-6-yl)morpholine] | – | > 20000
18 | Oc1cncc(-c2nc(N3CCOCC3)c3ncn(C4CCN(Cc5ccc(Cl)cc5)CC4)c3n2)c1 [Compound 38, 5-{9-[1-(4-chlorobenzyl)piperidin-4-yl]-6-morpholin-4-yl-9H-purin-2-yl}pyridin-3-ol] | – | 160
19 | Cc1cccc(-c2nc(N3CCOCC3)c3nc[nH]c3n2)c1 [Compound 11, 2-(3-methylphenyl)-6-morpholin-4-yl-9H-purine] | 4210 | –
20 | CN(C)C(=O)c1ccc(-c2nc(N3CCOCC3)c3nc[nH]c3n2)cc1 [Compound 17, N,N-dimethyl-4-(6-morpholin-4-yl-9H-purin-2-yl)benzamide] | 5930 | –
21 | c1ccc(-c2nc(N3CCOCC3)c3nc[nH]c3n2)cc1 [Compound 54, 4-(2-phenyl-9H-purin-6-yl)morpholine] | – | 19000
22 | Oc1cccc(-c2nc(N3CCOCC3)c3nc[nH]c3n2)c1 [Compound 55, 3-(6-morpholino-9H-purin-2-yl)phenol] | – | 2120
23 | N#Cc1cccc(-c2nc(N3CCOCC3)c3nc[nH]c3n2)c1 [Compound 13, 3-(6-morpholin-4-yl-9H-purin-2-yl)benzonitrile] | 3590 | –
24 | c1ccc(Oc2ccccc2-c2nc(N3CCOCC3)c3nc[nH]c3n2)cc1 [Compound 16, 6-morpholin-4-yl-2-(2-phenoxyphenyl)-9H-purine] | 8940 | –
25 | Oc1ccccc1-c1nc(N2CCOCC2)c2nc[nH]c2n1 [Compound 3, 2-(6-morpholin-4-yl-9H-purin-2-yl)phenol] | – | 2500
26 | CS(=O)(=O)c1ccc(-c2nc(N3CCOCC3)c3nc[nH]c3n2)cc1 [Compound 22, 2-(4-Methanesulfonyl-phenyl)-6-morpholin-4-yl-9H-purine] | 2160 | –
27 | FC(F)(F)c1cccc(-c2nc(N3CCOCC3)c3nc[nH]c3n2)c1 [Compound 10, 6-morpholin-4-yl-2-[3-(trifluoromethyl)phenyl]-9H-purine] | 5710 | –
28 | c1nc2c(N3CCOCC3)nc(-c3ccoc3)nc2[nH]1 [Compound 19, 2-(3-furyl)-6-morpholin-4-yl-9H-purine] | 4340 | –

Other lines, results leading:

Row | IC50 (PI3 Kinase) [nM] | IC50 (human TOR) [nM] | SMILES
29 | – | 720 | OCc1cccc(-c2nc(N3CCOCC3)c3ncn(C4CCN(Cc5ccc(-c6ccncc6)cc5)CC4)c3n2)c1 [Compound 47, (3-{6-morpholin-4-yl-9-[1-(4-pyridin-4-ylbenzyl)piperidin-4-yl]-9H-purin-2-yl}phenyl)methanol]
30 | 44 | 2050 | OCc1cccc(-c2nc(N3CCOCC3)c3ncn(C4CCN(Cc5ccc(F)cc5F)CC4)c3n2)c1 [Compound 49, (3-{9-[1-(2,4-difluorobenzyl)piperidin-4-yl]-6-morpholin-4-yl-9H-purin-2-yl}phenyl)methanol]
31 | 37 | 2500 | OCc1cccc(-c2nc(N3CCOCC3)c3ncn(C4CCN(Cc5ccc[nH]5)CC4)c3n2)c1 [Compound 68, (3-{6-morpholin-4-yl-9-[1-(1H-pyrrol-2-ylmethyl)piperidin-4-yl]-9H-purin-2-yl}phenyl)methanol]
32 | 31 | 940 | Oc1cncc(-c2nc(N3CCOCC3)c3ncn(C4CCN(Cc5ccc[nH]5)CC4)c3n2)c1 [Compound 39, 5-{6-morpholin-4-yl-9-[1-(1H-pyrrol-2-ylmethyl)piperidin-4-yl]-9H-purin-2-yl}pyridin-3-ol]
33 | 99 | 1800 | OCc1cccc(-c2nc(N3CCOCC3)c3ncn(C4CCN(Cc5cccc(N6CCOCC6)n5)CC4)c3n2)c1 [Compound 72, [3-(6-morpholin-4-yl-9-{1-[(6-morpholin-4-ylpyridin-2-yl)methyl]piperidin-4-yl}-9H-purin-2-yl)phenyl]methanol]
34 | 63 | 1000 | OCc1cncc(-c2nc(N3CCOCC3)c3ncn(C4CCN(Cc5ccccc5)CC4)c3n2)c1 [Compound 35, {5-[9-(1-benzylpiperidin-4-yl)-6-morpholin-4-yl-9H-purin-2-yl]pyridin-3-yl}methanol]
35 | 37 | 200 | Oc1cccc(-c2nc(N3CCOCC3)c3ncn(C4CCN(Cc5ccc(Cl)nc5)CC4)c3n2)c1 [Compound 78, 3-(9-{1-[(6-chloropyridin-3-yl)methyl]piperidin-4-yl}-6-morpholin-4-yl-9H-purin-2-yl)phenol]
36 | 16 | > 4000 | CN(C)CCCOc1ccc(CN2CCC(n3cnc4c(N5CCOCC5)nc(-c5cccc(CO)c5)nc43)CC2)cc1 [Compound 75]
37 | 518 | > 4000 | Cc1ccc(CN2CCC(n3cnc4c(N5CCOCC5)nc(-c5cccc(CO)c5)nc43)CC2)s1 [Compound 67, [3-(9-{1-[(5-methyl-2-thienyl)methyl]piperidin-4-yl}-6-morpholin-4-yl-9H-purin-2-yl)phenyl]methanol]
38 | – | 170 | Oc1cccc(-c2nc(N3CCOCC3)c3ncn(C4CCN(Cc5cccnc5)CC4)c3n2)c1 [Compound 76, 3-{6-morpholin-4-yl-9-[1-(pyridin-3-ylmethyl)piperidin-4-yl]-9H-purin-2-yl}phenol]
39 | – | 700 | OCc1cccc(-c2nc(N3CCOCC3)c3ncn(C4CCN(Cc5ccccc5)CC4)c3n2)c1 [Compound 33, {3-[9-(1-benzylpiperidin-4-yl)-6-morpholin-4-yl-9H-purin-2-yl]phenyl}methanol]
40 | – | 590 | Cc1ccc(CN2CCC(n3cnc4c(N5CCOCC5)nc(-c5cncc(O)c5)nc43)CC2)cc1 [Compound 40, 5-{9-[1-(4-methylbenzyl)piperidin-4-yl]-6-morpholin-4-yl-9H-purin-2-yl}pyridin-3-ol]
41 | – | 140 | Oc1cccc(-c2nc(N3CCOCC3)c3ncn(C4CCN(Cc5ccccc5)CC4)c3n2)c1 [Compound 28, 3-(9-(1-benzylpiperidin-4-yl)-6-morpholino-9H-purin-2-yl)phenol]
42 | – | 1000 | OCc1cccc(-c2nc(N3CCOCC3)c3ncn(C4CCN(Cc5ccccc5)CC4)c3n2)c1 [Compound 51, {3-[9-(1-benzylpiperidin-4-yl)-6-morpholin-4-yl-9H-purin-2-yl]phenyl}methanol]
43 | – | 120 | Oc1cccc(-c2nc(N3CCOCC3)c3ncn(C4CCN(Cc5ccc(Br)nc5)CC4)c3n2)c1 [Compound 81, 3-(9-{1-[(6-bromopyridin-3-yl)methyl]piperidin-4-yl}-6-morpholin-4-yl-9H-purin-2-yl)phenol]
